Values quoted from earlier work as cited in patent US20250268834A1, “IONIC LIQUID SALTS OF ACTIVE PHARMACEUTICAL INGREDIENTS” (GlaxoSmithKline Consumer Healthcare Holdings (US) LLC, priority 2021, published 2025).

Conditions: hydrolysis of amide to 4-aminophenol in liquids

**Q.** Which “pH with lowest hydrolysis levels of APAP” value does the source give for `CC(=O)Nc1ccc(O)cc1` [APAP, acetaminophen] here?
**A.** Its value is 5-6.
